According to patent US9090570B2, “Compounds for inflammation and immune-related uses” (Synta Pharmaceuticals Corp., priority 2005, dated 2015):
Structures can show the parent of a compound that is named as a salt.

Tested on: IL-2 production
Assay: Inhibition of IL-2 production in PHA-activated Jurkat cells (ELISA)
Assay type: cell-based
Conditions: Homo sapiens, PHA 2.5 μg/mL, IL-2 ELISA
Procedure: Jurkat cells were placed in a 96 well plate (0.5 million cells per well in 1% FBS medium) then a test compound of this invention was added at different concentrations. After 10 minutes, the cells were activated with PHA (final concentration 2.5 μg/mL) and incubated for 20 hours at 37° C. under CO2. The final volume was 200 μL. Following incubation, the cells were centrifuged and the supernatants collected and stored at −70° C. prior to assaying for IL-2 production. A commercial ELISA kit (IL-2 Eli-pair, Diaclone Research, Besancon, France) was used to detect production of IL-2, from which dose response curves were obtained. The IC50 value was calculated as the concentration at which 50% of maximum IL-2 production after stimulation was inhibited versus a non-stimulation control.

Row | SMILES | IC50 (20 hours) | IC50 (Jurkat, 20 h)
1 | O=C(Nc1cnc(-c2cc(C(F)(F)F)ccc2Cl)cn1)c1c(F)cccc1F [Compound 1, N-[5-(2-Chloro-5-trifluoromethyl-phenyl)-pyrazin-2-yl]-2,6-difluoro-benzamide] | 2 nM | 
2 | O=C(Nc1cnc(-c2cc(C(F)(F)F)ccc2Cl)cn1)c1ccncc1F [Compound 2, N-[5-(2-Chloro-5-trifluoromethyl-phenyl)-pyrazin-2-yl]-3-fluoro-isonicotinamide] | 115 nM | 
3 | O=C(Nc1cnc(-c2cc(C(F)(F)F)ccc2Cl)cn1)c1c(F)cccc1F [Compound 4, N-[5-(2-Chloro-5-trifluoromethyl-phenyl)-pyrazin-2-yl]-2,6-difluoro-benzamide hydrochloride] |  | 6 nM
4 | Cc1ccc(-c2ncco2)cc1-c1cnc(NC(=O)c2c(F)cncc2F)cn1 [Compound 63, 3,5-Difluoro-N-[5-(2-methyl-5-oxazol-2-yl-phenyl)-pyrazin-2-yl]-isonicotinamide] | 18.5 nM | 
5 | Cc1ccc(-c2ncco2)cc1-c1cnc(NC(=O)c2snnc2C)cn1 [Compound 64, 4-Methyl-[1,2,3]thiadiazole-5-carboxylic acid [5-(2-methyl-5-oxazol-2-yl-phenyl)-pyrazin-2-yl]-amide] | 55 nM | 
6 | COc1ccc(OC)c(-c2cnc(NC(=O)c3c(F)cccc3F)cn2)c1 [Compound 110, N-[5-(2,5-Dimethoxy-phenyl)-pyrazin-2-yl]-2,6-difluoro-benzamide] | 15.7 nM | 
7 | O=C(Nc1cnc(-c2cc(C(F)(F)F)ccc2Cl)cn1)C1CCCCC1 [Compound 112, Cyclohexanecarboxylic acid [5-(2-chloro-5-trifluoromethyl-phenyl)-pyrazin-2-yl]-amide] | 22.3 nM | 
8 | COc1ccc(OC)c(-c2cnc(NC(=O)c3ccncc3F)cn2)c1 [Compound 113, N-[5-(2,5-Dimethoxy-phenyl)-pyrazin-2-yl]-3-fluoro-isonicotinamide] | 207 nM | 
9 | O=C(Nc1cnc(-c2cc(C(F)(F)F)ccc2Cl)cn1)c1c(F)cncc1F [Compound 115, N-[5-(2-Chloro-5-trifluoromethyl-phenyl)-pyrazin-2-yl]-3,5-difluoro-isonicotinamide] | 4.1 nM | 
10 | COc1ccc(OC)c(-c2cnc(NC(=O)c3snnc3C)cn2)c1 [Compound 119, 4-Methyl-[1,2,3]thiadiazole-5-carboxylic acid [5-(2,5-dimethoxy-phenyl)-pyrazin-2-yl]-amide] | 302 nM | 

Now from value to compound, other results behind:

Row | IC50 (20 hours) | SMILES | IC50 (Jurkat, 20 h)
11 | > 1000 nM | O=C(Nc1ccc(-c2cc(C(F)(F)F)ccc2Cl)nn1)c1c(F)cccc1F [Compound 60, N-[6-(2-Chloro-5-trifluoromethyl-phenyl)-pyridazin-3-yl]-2,6-difluoro-benzamide] | 
12 | 50.5 nM | Cc1ccc(-c2ncco2)cc1-c1cnc(NC(=O)c2ccncc2F)cn1 [Compound 61, 3-Fluoro-N-[5-(2-methyl-5-oxazol-2-yl-phenyl)-pyrazin-2-yl]-isonicotinamide] | 
13 | 32.2 nM | Cc1cnccc1C(=O)Nc1cnc(-c2cc(-c3ncco3)ccc2C)cn1 [Compound 62, 3-Methyl-N-[5-(2-methyl-5-oxazol-2-yl-phenyl)-pyrazin-2-yl]-isonicotinamide] | 
14 | 49.2 nM | COC(=O)c1ccc(C)c(-c2cnc(NC(=O)c3ccncc3F)cn2)c1 [Compound 109, 3-{5-[(3-Fluoro-pyridine-4-carbonyl)-amino]-pyrazin-2-yl}-4-methyl-benzoic acid methyl ester] | 
15 | 133 nM | Cc1ncccc1C(=O)Nc1cnc(-c2cc(C(F)(F)F)ccc2Cl)cn1 [Compound 111, N-[5-(2-Chloro-5-trifluoromethyl-phenyl)-pyrazin-2-yl]-2-methyl-nicotinamide] | 
16 | 61.6 nM | Cc1nnsc1C(=O)Nc1cnc(-c2cc(C(F)(F)F)ccc2Cl)cn1 [Compound 114, 4-Methyl-[1,2,3]thiadiazole-5-carboxylic acid [5-(2-chloro-5-trifluoromethyl-phenyl)-pyrazin-2-yl]-amide] | 
17 | 118 nM | O=C(Nc1ncc(-c2cc(C(F)(F)F)ccc2Cl)cn1)c1c(F)cccc1F [Compound 116, N-[5-(2-Chloro-5-trifluoromethyl-phenyl)-pyrimidin-2-yl]-2,6-difluoro-benzamide] | 
18 | 145 nM | COc1ccc(OC)c(-c2cnc(NC(=O)c3ccncc3C)cn2)c1 [Compound 117, N-[5-(2,5-Dimethoxy-phenyl)-pyrazin-2-yl]-3-methyl-isonicotinamide] | 
19 | 34 nM | COc1ccc(OC)c(-c2cnc(NC(=O)c3c(F)cncc3F)cn2)c1 [Compound 118, N-[5-(2,5-Dimethoxy-phenyl)-pyrazin-2-yl]-3,5-difluoro-isonicotinamide] | 
20 | 352 nM | COc1ccc(OC)c(-c2cnc(NC(=O)C3CCCCC3)cn2)c1 [Compound 120, Cyclohexanecarboxylic acid [5-(2,5-dimethoxy-phenyl)-pyrazin-2-yl]-amide] | 
21 | 38.5 nM | Cc1ccc(-c2ncco2)cc1-c1cnc(NC(=O)C2CCCCC2)cn1 [Compound 121, Cyclohexanecarboxylic acid [5-(2-methyl-5-oxazol-2-yl-phenyl)-pyrazin-2-yl]-amide] | 
22 | 654 nM | O=C(Nc1cnc(-c2cc(C(F)(F)F)ccc2Cl)nc1)c1c(F)cccc1F [Compound 122, N-[2-(2-Chloro-5-trifluoromethyl-phenyl)-pyrimidin-5-yl]-2,6-difluoro-benzamide] | 
